The values that follow come from patent publication US20200270225A1, “Chiral Diacylhydrazine Ligands for Modulating the Expression of Exogenous Genes via an Ecdysone Receptor Complex” (Intrexon Corporation, priority 2007, published 2020).

Like-named read-outs stand apart in the source and are kept apart here.

Series [1] concerns the target T1, [V390I/Y410E/E274V]-CfEcR (Choristoneura fumiferana, UniProt O77240).
T1 construct: assay construct b835
It counts as cell-based. The note with it: 3T3 Cells; for RMFI (relative maximum fold induction): relative to GS-E ligand. In outline: (§1)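 NIH3T3 cells were transiently co-transfected with GAL4-DBD fused to CfEcR DEF domains (wild-type or V390I/Y410E/E274V), VP16-AD fused to chimeric human/Locusta RXR, and a GAL4-response luciferase reporter. Ligand was given at 8 doses, 0.01–33 µM, 0.33% DMSO, luciferase read at 48 h. EC50 came from fold induction over DMSO via three-parameter logistic fit; Relative Max FI was taken versus GS™-E ligand.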

Series [2] deals with wild-type Choristoneura fumiferana EcR (D, E and F domains) (Choristoneura fumiferana, UniProt O77240). It counts as cell-based. The note with it: WT-CtEcR, 3T3 Cells; for RMFI (relative maximum fold induction): relative to GS-E ligand. The method, boiled down:
as §1

One may read the melting point as the temperature of the solid-liquid transition. One may read the EC50 as the concentration needed to bring the measured effect to its halfway point. `CCC[C@@H](N(NC(=O)c1ccc2ccccc2c1)C(=O)c1cc(C)cc(C)c1)C(C)(C)C` [Example 24, (R)-3,5-Dimethyl-benzoic acid N-(1-tert-butyl-butyl)-N′-(naphthalene-2-carbonyl)-hydrazide] displayed a melting point of 91 °C. Besides, in series [1] (R), the EC50 was around 20 nM and the “RMFI (relative maximum fold induction)” value turned out to be 0.80. For the same compound, in series [2] (R), the EC50 was around 200 nM and the “RMFI (relative maximum fold induction)” value is listed as 0.46.

Turning to `CCC[C@@H](N(NC(=O)[C@@H](C)c1ccc2cc(OC)ccc2c1)C(=O)c1cc(C)cc(C)c1)C(C)(C)C` [Example 30, (R)-3,5-Dimethyl-benzoic Acid N-(1-tert-butyl-butyl)-N′—(S)-[2-(6-methoxy-naphthalen-2-yl)-propionyl]-hydrazide], the melting point worked out at 98 °C.

Regarding `CCC[C@H](N(NC(=O)c1cc(OC)c(C)c(OC)c1)C(=O)c1cc(C)cc(C)c1)C(C)(C)C` [Example 42, (S)-3,5-Dimethyl-benzoic acid N-(1-tert-butyl-butyl)-N′-(3,5-dimethoxy-4-methyl-benzoyl)-hydrazide], in series [1] (S), the EC50 is around 7000 nM and the “RMFI (relative maximum fold induction)” value is 0.08. Besides, the EC50 in series [2] (S) is above 10000 nM.

With `CCC[C@H](N(NC(=O)c1cccnc1Cl)C(=O)c1cc(C)cc(C)c1)C(C)(C)C` [Example 45, (S)-3,5-Dimethylbenzoic acid N-(1-tert-butyl-butyl)-N′-(2-chloro-pyridine-3-carbonyl)-hydrazide], in series [1] (S), the response was half-maximal at 1470 nM (EC50) and the “RMFI (relative maximum fold induction)” value stood at 0.80. For the same compound, in series [2] (S), the EC50 is around 20000 nM and the “RMFI (relative maximum fold induction)” value was 0.05.

On to `CCCC(N(NC(=O)c1ccc2ccccc2c1)C(=O)c1cc(C)cc(C)c1)C(C)(C)C` (racemic) [rac-24], for which the EC50 in series [1] (rac, read-out: EC50) was 61 nM; in series [2] (rac, read-out: EC50) it was around 500 nM. Besides, the entries for the “RMFI (relative maximum fold induction)” value in series [1] (rac) and in series [2] (rac) were 0.62 and 0.44, respectively.

Turning to `CCC[C@H](C1CCCCC1)N(NC(=O)c1ccccc1)C(=O)c1cc(C)cc(C)c1` [Example 53, (R)-3,5-Dimethyl-benzoic acid N′-benzoyl-N-(1-cyclohexyl-butyl)-hydrazide], in series [1] (R), the EC50 amounted to 629 nM and the “RMFI (relative maximum fold induction)” value is 0.62. Moreover, in series [2] (R), the EC50 was around 3300 nM and the “RMFI (relative maximum fold induction)” value is recorded as 0.30.

Regarding `CCC[C@@H](N(NC(=O)c1cccs1)C(=O)c1cc(C)cc(C)c1)C(C)(C)C` [Example 25, (R)-3,5-Dimethyl-benzoic acid N-(1-tert-butyl-butyl)-N′-(thiophene-2-carbonyl)-hydrazide], in series [1] (R), the EC50 is around 20 nM and the “RMFI (relative maximum fold induction)” value amounted to 0.72. Besides, in series [2] (R), a half-maximal response (EC50) required 432 nM and the “RMFI (relative maximum fold induction)” value came to 0.42.

On to `CCC[C@@H](N(NC(=O)c1cc(OC)c(C)c(OC)c1)C(=O)c1cc(C)cc(C)c1)C(C)(C)C` [Example 19, (R)-3,5-Dimethyl-benzoic acid N-(1-tert-butyl-butyl)-N′-(3,5-dimethoxy-4-methyl-benzoyl)-hydrazide], for which, in series [1] (R), the EC50 is around 2000 nM and the “RMFI (relative maximum fold induction)” value is given as 0.37. For the same compound, in series [2] (R), the concentration giving a half-maximal response (EC50) was around 5000 nM and the “RMFI (relative maximum fold induction)” value came out at 0.09.

Turning to `C=CCC(CCc1ccccc1)N(NC(=O)c1ccc(CC)cc1)C(=O)c1cc(C)cc(C)c1` (racemic) [rac-62], the EC50 in series [1] (rac, read-out: EC50) was 2110 nM; in series [2] (rac, read-out: EC50), around 5000 nM. Besides, the “RMFI (relative maximum fold induction)” value worked out at 0.67 in series [1] (rac) and 0.06 in series [2] (rac).

With `CCCC(N(NC(=O)c1cccc(OC)c1C)C(=O)c1cc(C)cc(C)c1)C(C)(C)C` (racemic) [rac-29], the EC50 turned out to be 0.15 nM in series [1] (rac, read-out: EC50) and 3.88 nM in series [2] (rac, read-out: EC50). The “RMFI (relative maximum fold induction)” value worked out at 0.77 in series [1] (rac) and 0.98 in series [2] (rac).

As to `CCCC(N(NC(=O)c1ccc(Cl)cc1)C(=O)c1cc(C)cc(C)c1)C(C)(C)C` (racemic) [rac-14], the EC50 in series [1] (rac, read-out: EC50) was around 20 nM; in series [2] (rac, read-out: EC50), around 200 nM. Further, the “RMFI (relative maximum fold induction)” value worked out at 0.83 in series [1] (rac) and 0.46 in series [2] (rac).

Consider `CCC[C@@H](C1CCCCC1)N(NC(=O)c1cccc(OC)c1)C(=O)c1cc(C)cc(C)c1` [Example 58, (S)-3,5-Dimethyl-benzoic acid N-(1-cyclohexyl-butyl)-N′-(3-methoxy-benzoyl)-hydrazide], for which the EC50 in series [1] (S) was 121 nM; in series [2] (S), around 3300 nM. Also, the “RMFI (relative maximum fold induction)” value came to 0.42 in series [1] (S) and 0.25 in series [2] (S).

For `C=CC[C@@H](CCc1ccccc1)N(NC(=O)c1ccc(CC)cc1)C(=O)c1cc(C)cc(C)c1` [Example 62, (R)-3,5-Dimethyl-benzoic Acid N′-(4-ethyl-benzoyl)-N-(1-phenethyl-but-3-enyl)-hydrazide], in series [1] (R), the response was half-maximal at 1990 nM (EC50) and the “RMFI (relative maximum fold induction)” value was 0.54. Moreover, in series [2] (R), the EC50 is 3090 nM and the “RMFI (relative maximum fold induction)” value came out at 0.14.

Regarding `CCC[C@H](N(NC(=O)c1c(F)cccc1F)C(=O)c1cc(C)cc(C)c1)C(C)(C)C` [Example 40, (S)-3,5-Dimethyl-benzoic acid N-(1-tert-butyl-butyl)-N′-(2,6-difluoro-benzoyl)-hydrazide], in series [1] (S), the EC50 is around 20 nM and the “RMFI (relative maximum fold induction)” value was 0.69. Moreover, in series [2] (S), the EC50 is around 1000 nM and the “RMFI (relative maximum fold induction)” value is 0.39.

Regarding `CCCC(N(NC(=O)c1cccc(OC)c1C)C(=O)c1cc(OC)c(C)c(OC)c1)C(C)(C)C` (racemic) [rac-51], the EC50 was found to be 15 nM in series [1] (rac, read-out: EC50) and 80.2 nM in series [2] (rac, read-out: EC50). Also, the “RMFI (relative maximum fold induction)” value in series [1] (rac) came out at 0.81; in series [2] (rac), 0.82.

As for `C=CC[C@H](C1CCCCC1)N(NC(=O)c1cccc(OC)c1C)C(=O)c1cc(C)cc(C)c1` [Example 60, (R)-3,5-Dimethyl-benzoic acid N-(1-cyclohexyl-but-3-enyl)-N′-(3-methoxy-2-methyl-benzoyl)-hydrazide], the EC50 in series [1] (R) is 746 nM; in series [2] (R) it was around 2000 nM. In addition, the “RMFI (relative maximum fold induction)” value in series [1] (R) turned out to be 0.78; in series [2] (R), 0.62.

In the case of `CCC[C@@H](N(NC(=O)c1cc(C)oc1C)C(=O)c1cc(C)cc(C)c1)C(C)(C)C` [Example 26, (R)-3,5-Dimethyl-benzoic acid N-(1-tert-butyl-butyl)-N′-(2,5-dimethyl-furan-3-carbonyl)-hydrazide], the results for the EC50 in series [1] (R) and in series [2] (R) were 99.4 nM and around 1000 nM, respectively. In addition, the “RMFI (relative maximum fold induction)” value in series [1] (R) was found to be 0.95; in series [2] (R) it was 1.16.

Take `CCC[C@H](N(NC(=O)c1cc(C)oc1C)C(=O)c1cc(C)cc(C)c1)C(C)(C)C` [Example 44, (S)-3,5-Dimethyl-benzoic acid N-(1-tert-butyl-butyl)-N′-(2,5-dimethyl-furan-3-carbonyl)-hydrazide]: in series [1] (S), the EC50 is around 2000 nM and the “RMFI (relative maximum fold induction)” value is given as 0.49. Further, in series [2] (S), a half-maximal effect (EC50) was put at 7060 nM and the “RMFI (relative maximum fold induction)” value came to 0.32.

Turning to `CCCC(N(NC(=O)c1cccc(C)c1)C(=O)c1cc(C)cc(C)c1)C(C)(C)C` (racemic) [rac-8], the EC50 in series [1] (rac, read-out: EC50) was found to be 16.2 nM; in series [2] (rac, read-out: EC50) it was 193 nM. For the same compound, the figures for the “RMFI (relative maximum fold induction)” value in series [1] (rac) and in series [2] (rac) were 0.86 and 0.88, respectively.

As for `CCC[C@H](N(NC(=O)c1cccs1)C(=O)c1cc(C)cc(C)c1)C(C)(C)C` [Example 43, (S)-3,5-Dimethyl-benzoic acid N-(1-tert-butyl-butyl)-N′-(thiophene-2-carbonyl)-hydrazide], in series [1] (S), it took 1060 nM to reach a half-maximal effect (EC50) and the “RMFI (relative maximum fold induction)” value came out at 0.52. In series [2] (S), the EC50 was around 10000 nM and the “RMFI (relative maximum fold induction)” value was 0.07.

As to `CCCC(N(NC(=O)c1cccc2ccccc12)C(=O)c1cc(C)cc(C)c1)C(C)(C)C` (racemic) [rac-23], the EC50 in series [1] (rac, read-out: EC50) worked out at 66 nM; in series [2] (rac, read-out: EC50), 521 nM. The “RMFI (relative maximum fold induction)” value in series [1] (rac) is recorded as 0.84; in series [2] (rac), 0.60.

With `CCC[C@@H](N(NC(=O)c1cccc(OC)c1C)C(=O)c1cc(OC)c(C)c(OC)c1)C(C)(C)C` [Example 51, (R)-3,5-Dimethoxy-4-methyl-benzoic acid N-(1-tert-butyl-butyl)-N′-(3-methoxy-2-methyl-benzoyl)-hydrazide], in series [1] (R), the EC50 was found to be 0.56 nM and the “RMFI (relative maximum fold induction)” value was 0.81. Besides, in series [2] (R), the EC50 is around 70 nM and the “RMFI (relative maximum fold induction)” value was found to be 1.00.

Consider `CCC[C@@H](N(NC(=O)c1ccc2c(c1C)OCO2)C(=O)c1cc(C)cc(C)c1)C(C)(C)C` [Example 20, (R)-3,5-Dimethyl-benzoic acid N-(1-tert-butyl-butyl)-N′-(4-methyl-benzo[1,3]dioxole-5-carbonyl)-hydrazide], for which, in series [1] (R), the EC50 stood at 0.26 nM and the “RMFI (relative maximum fold induction)” value worked out at 1.01. Besides, in series [2] (R), the EC50 was 7.6 nM and the “RMFI (relative maximum fold induction)” value is on record as 1.02.
